The results in this text go back to PubChem BioAssay AID463204 (Broad Institute, 2010).

The structures appear in SMILES notation. Activity calls are given as the source filed them.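 How the source made its calls: active means AC50 no more than ten times the top concentration tested, that is within one log above it; inconclusive means flat curve fit with activity between 30% and 70%, or invalid poor fit; inactive means AC50 beyond ten times the top tested dose.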

This experiment concerns S. cerevisiae Mot1-301 ts growth rescue, BacTiter-Glo ATP luminescence. Nature of the experiment: restored Mot1-301 yeast growth at 38.5C – whole organism, S. cerevisiae, Mot1-301 ts mutant, luminescence, dose retest, SUMOylation pathway inhibitor project, confirmation (AID 463204).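 Further: growth at restrictive 38.5 degrees C of Mot1-301 OY566 strain; actives raise luminescence by restoring growth of the ts mutant at high temperature.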
`CCc1nc2ccc(C(=O)N3CCN(CC)CC3)cc2nc1CC`: the AC50 was > 42 µM (inactive).

For the compound `COc1ccc(C2SCC(=O)Nc3c2c(=O)[nH]n3C2CCCCC2)cc1` (configuration not stated), the AC50 was > 42 µM (inactive).

In the case of `Cc1ccc(S(=O)(=O)CCC(=O)OCC(=O)N(C)C2CCS(=O)(=O)C2)cc1` (configuration not stated), the AC50 is > 42 µM (inactive).

For `CC(NC(=O)C12CC3CC(CC(O)(C3)C1)C2)c1ccccc1` (configuration not stated), the AC50 was > 42 µM (inactive).

Regarding `COc1cccc(-c2ocnc2C(=O)Nc2ccc3c(c2)CCC3)c1`, the AC50 was > 42 µM (inactive).

As for `CN(C)c1ccc(C(CNS(=O)(=O)c2ccc([N+](=O)[O-])cc2)N2CCOCC2)cc1` (configuration not stated), the AC50 was > 42 µM (inactive).

For the compound `COc1cc(C(=O)OCC(=O)NC(C)CCc2ccccc2)cc(OC)c1OC` (configuration not stated), the AC50 is > 42 µM (inactive).

`COCC(C)n1c(-c2ccc3c(c2)NC(=O)CO3)csc1=Nc1ccc(OC(F)F)cc1` (configuration not stated): the AC50 is 25.2 µM.

For `O=C(Nc1ccccc1)N1CCN(CCc2ccccc2)CC1`, the AC50 is > 42 µM (inactive).

On to `COc1ccc([N+](=O)[O-])c2c(=O)ccoc12`, for which the AC50 is > 42 µM (inactive).

As for `O=C(NCC(=O)N(c1ccccc1)C(C(=O)NCC1CCCO1)c1ccccc1)c1cccs1` (configuration not stated), the AC50 is > 42 µM (inactive).

For `Cc1ccc2nc(SCC(=O)Nc3cccc(S(N)(=O)=O)c3)[nH]c2c1`, the AC50 is > 42 µM (inactive).

Take `COc1cccc(OC)c1C(=O)N1CCN(Cc2ccccc2C)CC1`: the AC50 was > 42 µM (inactive).

For the compound `CCOc1ccc(S(=O)(=O)N2CCC(C(=O)N3CCN(c4ccccc4)CC3)CC2)cc1`, the AC50 was > 42 µM (inactive).

Turning to `O=C(c1cc(-c2ccc(Cl)cc2)n(-c2ccc(Cl)cc2)n1)N1CCOCC1`, the AC50 was > 42 µM (inactive).

Turning to `Cc1ccc(N(CC(=O)NCCc2ccc(Cl)cc2)S(=O)(=O)c2c(C)noc2C)cc1`, the AC50 was > 42 µM (inactive).

As to `COc1ccc(Cn2nnnc2CN2CCN(c3ccc(OC)cc3)CC2)cc1`, the AC50 was > 42 µM (inactive).

For the compound `CN(C(=O)COC(=O)c1cc2ccccc2cc1O)c1c(N)n(Cc2ccccc2)c(=O)[nH]c1=O`, the AC50 is > 42 µM (inactive).

Consider `O=S(=O)(NCc1cccc(C(F)(F)F)c1)NCc1ccccc1F`, for which the AC50 was > 42 µM (inactive).

`O=C(Nc1ccccc1N1CCN(c2ccccc2)CC1)c1cccc(F)c1`: the AC50 was > 42 µM (inactive).

With `COc1ccccc1NC(=O)c1ccc(-n2ccnc2)c([N+](=O)[O-])c1`, the AC50 was > 42 µM (inactive).

With `O=C(CSc1nnc(COc2ccccc2Cl)o1)NC(=O)NC1CCCC1`, the AC50 was > 42 µM (inactive).

With `COc1cccc(NC(=O)Nc2cc(C(=O)NC(C)C)ccc2N2CC3CC(C2)c2cccc(=O)n2C3)c1` (configuration not stated), the AC50 is > 42 µM (inactive).

As to `Cc1cc(NC(=O)c2ccc(N3C(=O)CCC3=O)cc2)no1`, the AC50 was > 42 µM (inactive).

On to `CCOC(=O)C1(Cc2cccc(F)c2)CCN(C(=O)c2cnccn2)CC1`, for which the AC50 is > 42 µM (inactive).

Consider `O=C(CCCc1nc(-c2ccc(Cl)cc2)no1)NC1CCCCC1`, for which the AC50 is > 42 µM (inactive).

Regarding `CCCOC(=O)C1=C(C)NC2=C(C(=O)CCC2)C1c1cccs1` (configuration not stated), the AC50 is > 42 µM (inactive).

As to `COc1cc([C@@H]2CC=C(C(=O)O)[C@H](c3ccccc3F)N2S(=O)(=O)c2ccc(C)cc2)cc(OC)c1OC`, the AC50 was > 42 µM (inactive).

Consider `O=C(OCc1nnc(-c2ccccc2)o1)c1ccc([N+](=O)[O-])o1`, for which the AC50 is 4.12 µM.

Take `CN(C)C(=O)CSc1nc2ccc(N3C(=O)c4ccccc4C3=O)cc2s1`: the AC50 is > 42 µM (inactive).

On to `c1ccc2cc(C3CCCCC3)ncc2c1`, for which the AC50 was 14 µM.

With `CCC(C)[C@H](NC(=O)OC(C)(C)C)C(=O)NCC1CCC(C(=O)N[C@@H](Cc2ccccc2)C(=O)O)CC1` (some centres not stated), the AC50 was > 42 µM (inactive).

Consider `CC(=O)c1ccc(C(=O)N2CCCC(N3CCN(c4ccc(F)cc4)CC3)C2)s1` (configuration not stated), for which the AC50 is > 42 µM (inactive).

`COC(=O)CSc1ccc(S(=O)(=O)N2CCCCCC2)cc1[N+](=O)[O-]`: the AC50 is > 42 µM (inactive).

As to `O=S(=O)(NCC1CCCO1)c1cc(Cl)ccc1Br` (configuration not stated), the AC50 was > 42 µM (inactive).

Turning to `Cc1ccc(CC2CC(=O)N(c3ccc4c(c3)OCCO4)C2=O)cc1` (configuration not stated), the AC50 is > 42 µM (inactive).

As for `Cc1ccc(C)c(NC(=S)NC(=O)c2cncc(Br)c2)c1`, the AC50 was > 42 µM (inactive).

Take `COc1ccccc1NC(=O)Nc1ccc(Cl)c(S(=O)(=O)Nc2ccccc2OC)c1`: the AC50 was > 42 µM (inactive).

Regarding `N=c1c2c(n(Cc3ccc(Cl)c(Cl)c3)c3c1CCC3)CCCC2`, the AC50 is > 42 µM (inactive).

Consider `O=C(COc1cnc2ccccc2n1)NCCC1=CCCCC1`, for which the AC50 is > 42 µM (inactive).

With `O=C(CCC(=O)Nc1ccc(F)cc1)N/N=C/c1cccs1`, the AC50 was > 42 µM (inactive).

With `Cc1ccc2c(c1)N(CC(=O)NCCCN1CCN(C)CC1)C(=O)CO2`, the AC50 was > 42 µM (inactive).

As for `COC(=O)C1CCN(S(=O)(=O)Cc2ccccc2)CC1`, the AC50 is > 42 µM (inactive).

Turning to `O=[N+]([O-])c1ccc(-c2csc(N3CCc4ccccc4C3)n2)cc1`, the AC50 was > 42 µM (inactive).

Consider `CCOC(=O)c1cnc2ccc(Cl)cc2c1N1CCN(C)CC1`, for which the AC50 was > 42 µM (inactive).

For `COC(=O)c1ccc(CSc2nc3ccccc3c(=O)n2CC(C)C)o1`, the AC50 was > 42 µM (inactive).

Turning to `CCCCN(C/C=C/c1ccccc1OC)Cc1ccccc1`, the AC50 was > 42 µM (inactive).

Take `CN(C)C(/C=C/Nc1cccc(Br)c1)=C(C#N)C#N`: the AC50 is > 42 µM (inactive).

Consider `COc1cc(C(=O)OCC(=O)NCc2ccccc2)cc(NC(=O)c2ccco2)c1OC`, for which the AC50 is > 42 µM (inactive).

Consider `Cc1cc(C)nc(-n2nc(C)cc2NC(=O)CNCc2ccccc2)n1`, for which the AC50 is > 42 µM (inactive).

In the case of `CCOc1ccc(N(C(=O)C2CCCO2)C2C=CS(=O)(=O)C2)cc1` (configuration not stated), the AC50 was > 42 µM (inactive).

`CCCCOCCCNS(=O)(=O)Cc1ccccc1`: the AC50 was > 42 µM (inactive).

As for `Cc1sc2ncn(C(C)C(=O)OC3CCCCC3)c(=O)c2c1C` (configuration not stated), the AC50 is > 42 µM (inactive).

Consider `N=c1ncn(CC(O)CO)c2nc(N3CCOCC3)[nH]c12` (configuration not stated), for which the AC50 is > 42 µM (inactive).

Regarding `CCN1CCCC1CNC(=O)Cn1cnc2ccc(S(=O)(=O)N3CCC(C)CC3)cc2c1=O` (configuration not stated), the AC50 was > 42 µM (inactive).

On to `CN1/C(=C\C(=O)COC(=O)c2ccc([N+](=O)[O-])o2)C(C)(C)c2ccccc21`, for which the AC50 was 13.6 µM.

On to `CNC(=O)c1ccccc1S(=O)c1ccccc1COC(C)=O` (configuration not stated), for which the AC50 was > 42 µM (inactive).

Regarding `COc1cc(C(=O)Oc2cccnc2)cc(OC)c1OC`, the AC50 was > 42 µM (inactive).

Consider `CC1(C(=O)Nc2cccc(-n3cnnn3)c2)Cc2ccccc2C(=O)O1` (configuration not stated), for which the AC50 was > 42 µM (inactive).

For `COCCCn1c(=O)c2ccccc2n(Cc2ccccc2C)c1=O`, the AC50 is > 42 µM (inactive).

Regarding `O=C(NCc1ccccc1Cl)C(=O)NCC1CCCN1S(=O)(=O)c1cccs1` (configuration not stated), the AC50 is > 42 µM (inactive).

`CC1=C(C(=O)Nc2ccccc2)C(c2ccccc2[N+](=O)[O-])NC(=O)N1` (configuration not stated): the AC50 was > 42 µM (inactive).

`CN(C)CCN(Cc1ccc(Cl)cc1)c1ccccn1`: the AC50 is > 42 µM (inactive).

For the compound `N#C/C(=C\c1c(N(Cc2ccccc2)Cc2ccccc2)nc2ccccn2c1=O)C(N)=O`, the AC50 is > 42 µM (inactive).

`CCOC(=O)C1(Cc2cccc(OC)c2)CCCN(S(=O)(=O)c2cccnc2)C1` (configuration not stated): the AC50 is > 42 µM (inactive).

As to `C=C1C2C[C@@]3([C@@H]1O)[C@@H](C[C@@H]2O)[C@@]12C4[C@@H]3C[C@@H]1[C@@](C)(CC[C@@H]2O)CN4CC`, the AC50 was > 42 µM (inactive).

As for `Cc1ccccc1-c1nnnn1C1CCS(=O)(=O)C1` (configuration not stated), the AC50 was > 42 µM (inactive).

For the compound `O=C(O)CC(NC(=O)OCc1ccccc1)c1ccc(Br)cc1` (configuration not stated), the AC50 was > 42 µM (inactive).

In the case of `CCOC(=O)c1sc(NC(=O)CSc2n[nH]c(-c3ccc(Cl)cc3Cl)n2)c(C#N)c1C`, the AC50 is > 42 µM (inactive).

For the compound `CCc1ccc2nc(-c3cccc(C)c3)nc(SCC(=O)NCC3CCCO3)c2c1` (configuration not stated), the AC50 is > 42 µM (inactive).

Consider `COc1ccc(OCC(=O)O/N=C(\N)Cc2ccc(Cl)cc2)cc1`, for which the AC50 is > 42 µM (inactive).

Regarding `CCOc1ccc(/C=N/NC(=O)c2ccc(CSc3nc4ccccc4[nH]3)cc2)cc1`, the AC50 was > 42 µM (inactive).

As to `c1ccc(CNc2ncnc3sc4c(c23)CCC4)nc1`, the AC50 was > 42 µM (inactive).

In the case of `CCOc1ccc(NC(=O)C2CC(=O)N3CCCN=C3S2)cc1` (configuration not stated), the AC50 is > 42 µM (inactive).

With `Cc1ccc(S(=O)(=O)N2[C@@H](c3ccc(Br)cc3)C(C(=O)O)=C[C@H]2CC2CCCC2)cc1`, the AC50 was 3.51 µM.

As for `Oc1cccc(/C=N/N2CCN(c3ccccn3)CC2)c1`, the AC50 was > 21 µM (inactive).

With `C=CCSc1nnc2c(n1)[nH]c1c(C)cccc12`, the AC50 was > 42 µM (inactive).

With `Cc1sc(NC(=O)c2ccc(F)cc2)c(CN2CCCCCC2)c1C`, the AC50 was > 42 µM (inactive).

Consider `Cc1ccc2nc(NC(=O)C3CCN(S(=O)(=O)c4cccnc4)CC3)sc2c1`, for which the AC50 was > 42 µM (inactive).

Take `C[C@@]12C(=O)Nc3cc(Cl)ccc3C(=O)N1[C@H]1c3ccccc3OC[C@@H]1[C@@H]2c1ccccc1`: the AC50 was 1.98 µM.

As for `Clc1ccc(CN(Cc2ccccc2)C(c2cccs2)c2nnnn2C2CCCC2)cc1` (configuration not stated), the AC50 was > 42 µM (inactive).

Turning to `Cc1cc(C)nc(SCC2COc3ccccc3O2)n1` (configuration not stated), the AC50 is > 42 µM (inactive).

As to `COc1ccccc1NC(NC(=O)c1ccco1)C(=O)c1ccccc1` (configuration not stated), the AC50 was > 42 µM (inactive).

Turning to `COc1ccc(C(=O)NCCSc2ccc(C)cc2)cc1`, the AC50 was > 42 µM (inactive).

As for `O=C(NNc1ccccc1)C(CCO)C(=O)NNc1ccccc1`, the AC50 was > 42 µM (inactive).

For the compound `Cc1nnc(C)n1/N=C/c1cc2ccccc2nc1Cl`, the AC50 is > 42 µM (inactive).

`CC(C)NC(=O)c1ccccc1-c1ccccc1`: the AC50 was > 42 µM (inactive).
